The text below walks through data of patent US12023345B2, “Compositions and methods for treating lysosomal disorders” (RUSH UNIVERSITY MEDICAL CENTER, priority 2014, dated 2024).

Data set [1] relates to TFEB. To be noted: cells from patients suffering from LINCL; cited from earlier work.
Data set [2] concerns Tfeb. Nature of the data set: Tfeb mRNA by quantitative real-time PCR in mouse primary astrocytes. It is filed as cell-based. To be noted: serum free media, 12 hrs, single doses or combination. On the procedure: Isolation of Primary Mouse Astroglia: Astroglia were isolated from mixed glial cultures as described (24, 25) according to the procedure of Giulian and Baker (26). Briefly, on day 9, the mixed glial cultures were washed three times with Dulbecco's modified Eagle's medium/F-12 and subjected to shaking at 240 rpm for 2 h at 37° C. on a rotary shaker to remove microglia. After 2 days, the shaking was repeated for 24 h for the removal of oligodendroglia and to ensure the complete removal of all nonastroglial cells. The attached cells were seeded onto new plates for further studies. Quantitative Real-Time PCR: The mRNA quantification was performed using the ABIPrism7700 sequence detection system (Applied Biosystems, Foster City, CA) using SYBR Select master mix (Applied Biosystems). The mRNA expression of the targeted genes was normalized to the level of Gapdh mRNA and data was processed by the ABI Sequence Detection System 1.6 software.

The test system of data set [3] is TFEB. To be noted: cited from earlier work.
For data set [4] the following is noted: 500 mg SAM given together with aspirin 1300 mg; cited from earlier work.
In data set [5] the test system is Tfeb. The data set can be described thus: TFEB mRNA by semi-quantitative RT-PCR in mouse primary astrocytes. It is filed as cell-based. The note with it: different concentrations, 5 hr, serum-free. On the procedure: Semi-Quantitative Reverse Transcriptase-Coupled Polymerase Chain Reaction (RT-PCR): Total RNA was isolated from mouse primary astrocytes and human primary astrocytes using RNA-Easy Qiagen (Valencia, CA) kit following manufactures protocol. Semi-quantitative RTPCR was carried out as described earlier (28) using oligo (dT) 12-18 as primer and moloney murine leukemia virus reverse transcriptase (MMLV-RT, Invitrogen) in a 20 μl reaction mixture. The resulting cDNA was appropriately amplified using Promega Master Mix (Madison, WI) and the following primers (Invitrogen) for murine genes: […]
Amplified products were electrophoresed on 2% agarose (Invitrogen) gels and visualized by ethidium bromide (Invitrogen) staining. Glyceraldehyde-3-phosphate dehydrogenase (Gapdh) mRNA was used as a loading control to ascertain that an equivalent amount of cDNA was synthesized from each sample.
Mouse primary astrocytes were incubated with different concentrations (see FIG. 9) of simvastatin and pravastatin (A), (B), cinnamic acid (C), and sodium phenylbutyrate and sodium benzoate (D) for 5 hr. under serum-free condition followed by monitoring the mRNA expression of TFEB by semi-quantitative RT-PCR. Sodium formate (D) was used as a negative control for sodium phenylbutyrate and sodium benzoate.

With 2-hydroxypropyl-β-cyclodextrin, in the data set with TFEB [1], the “TFEB-mediated clearance of proteolipid aggregates” value was “promotes TFEB-mediated clearance of proteolipid aggregates”.

With `CC1=C(/C=C/C(C)=C/C=C/C(C)=C/C(=O)O)C(C)(C)CCC1` [ATRA, all-trans retinoic acid], the “Tfeb mRNA expression (qRT-PCR)” value with Tfeb [2] is reported as “increased expression of Tfeb”.

With `O=c1c(-c2ccc(O)cc2)coc2cc(O)cc(O)c12` [Genistein, 5,7-dihydroxy-3-(4-hydroxyphenyl)-4H-1-benzopyran-4-one], the “TFEB levels and activity, lysosomal biogenesis” value in the data set with TFEB [3] is “induction of TFEB levels and activity as well as lysosomal biogenesis”.

`C[S+](CC[C@H](N)C(=O)[O-])C[C@H]1O[C@@H](n2cnc3c(N)ncnc32)[C@H](O)[C@@H]1O` (stereo partly shown) [S-adenosyl-methionine]: in data set [4], the “reduction of the amount of stomach damage” value is listed as 90%.

For `O=C(O)C=Cc1ccccc1` [cinnamic acid], the “TFEB mRNA expression (semi-quantitative RT-PCR)” value with Tfeb [5] is listed as “upregulation of TFEB mRNA expression”.

Consider `Cc1ccc(C)c(OCCCC(C)(C)C(=O)O)c1` [gemfibrozil], for which the “Tfeb mRNA expression (qRT-PCR)” value with Tfeb [2] is “increased expression of Tfeb”.

For the molecule `O=C([O-])c1ccccc1.[Na+]` [sodium benzoate], the “TFEB mRNA expression (semi-quantitative RT-PCR)” value in the data set with Tfeb [5] was “upregulation of TFEB mRNA expression”.
